# Laboratory results taken from ChEMBL document CHEMBL5291721, “A preclinical secondary pharmacology resource illuminates target-adverse drug reaction associations of marketed drugs” (Nat Commun, 2023).
# Key:
# [1] = target: Adenosine receptor A2a (Homo sapiens, UniProt P29274)
# [2] = target: T1, Alpha-2A adrenergic receptor (Homo sapiens, UniProt P08913); assay type: functional, cell-based
# T1 sequence (P08913 whole entry): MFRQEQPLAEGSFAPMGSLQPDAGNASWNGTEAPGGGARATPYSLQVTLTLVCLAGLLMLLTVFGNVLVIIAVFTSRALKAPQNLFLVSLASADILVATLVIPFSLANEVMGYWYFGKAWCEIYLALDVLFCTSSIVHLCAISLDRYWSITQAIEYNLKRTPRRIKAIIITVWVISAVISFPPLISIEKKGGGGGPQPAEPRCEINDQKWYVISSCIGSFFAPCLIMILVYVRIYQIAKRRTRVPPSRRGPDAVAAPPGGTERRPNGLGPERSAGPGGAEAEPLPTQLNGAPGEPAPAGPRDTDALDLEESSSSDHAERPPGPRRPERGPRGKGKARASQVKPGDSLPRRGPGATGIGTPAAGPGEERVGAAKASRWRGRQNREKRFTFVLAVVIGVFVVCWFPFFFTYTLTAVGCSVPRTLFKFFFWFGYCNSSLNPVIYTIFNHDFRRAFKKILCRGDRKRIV
# [3] = target: T1, Alpha-2A adrenergic receptor; assay type: functional, cell-based; remark: listed apart in the source
# [4] = target: T2, Alpha-2C adrenergic receptor (Homo sapiens, UniProt P18825); assay type: functional
# T2 sequence (P18825 whole entry): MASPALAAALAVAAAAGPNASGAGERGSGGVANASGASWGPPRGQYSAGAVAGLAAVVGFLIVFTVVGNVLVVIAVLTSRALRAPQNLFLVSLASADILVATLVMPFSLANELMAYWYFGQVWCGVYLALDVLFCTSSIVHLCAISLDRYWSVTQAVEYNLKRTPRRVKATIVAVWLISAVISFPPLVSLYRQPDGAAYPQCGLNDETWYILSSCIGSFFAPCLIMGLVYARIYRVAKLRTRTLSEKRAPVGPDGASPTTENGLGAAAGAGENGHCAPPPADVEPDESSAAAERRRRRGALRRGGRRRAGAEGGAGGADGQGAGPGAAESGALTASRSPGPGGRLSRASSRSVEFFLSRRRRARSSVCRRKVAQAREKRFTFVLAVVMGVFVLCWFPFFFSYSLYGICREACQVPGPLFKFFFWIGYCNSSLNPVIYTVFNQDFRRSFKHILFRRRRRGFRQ
# [5] = target: Beta-1 adrenergic receptor (Homo sapiens, UniProt P08588); assay type: functional
# Chain of Beta-1 adrenergic receptor (P08588 whole entry): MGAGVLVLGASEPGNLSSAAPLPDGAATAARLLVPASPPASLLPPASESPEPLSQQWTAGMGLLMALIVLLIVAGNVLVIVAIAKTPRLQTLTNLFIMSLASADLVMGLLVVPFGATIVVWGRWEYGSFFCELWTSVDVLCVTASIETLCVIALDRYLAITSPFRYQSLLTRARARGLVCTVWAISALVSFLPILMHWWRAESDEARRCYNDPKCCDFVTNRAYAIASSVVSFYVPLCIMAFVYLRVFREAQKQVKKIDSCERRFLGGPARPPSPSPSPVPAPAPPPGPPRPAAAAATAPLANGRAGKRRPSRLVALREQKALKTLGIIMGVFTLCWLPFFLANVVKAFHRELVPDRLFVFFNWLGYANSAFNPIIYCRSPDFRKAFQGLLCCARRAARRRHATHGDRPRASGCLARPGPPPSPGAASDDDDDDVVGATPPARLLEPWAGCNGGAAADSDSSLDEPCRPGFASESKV
# [6] = target: T3, B2 bradykinin receptor (Homo sapiens, UniProt P30411)
# T3 sequence (P30411 whole entry): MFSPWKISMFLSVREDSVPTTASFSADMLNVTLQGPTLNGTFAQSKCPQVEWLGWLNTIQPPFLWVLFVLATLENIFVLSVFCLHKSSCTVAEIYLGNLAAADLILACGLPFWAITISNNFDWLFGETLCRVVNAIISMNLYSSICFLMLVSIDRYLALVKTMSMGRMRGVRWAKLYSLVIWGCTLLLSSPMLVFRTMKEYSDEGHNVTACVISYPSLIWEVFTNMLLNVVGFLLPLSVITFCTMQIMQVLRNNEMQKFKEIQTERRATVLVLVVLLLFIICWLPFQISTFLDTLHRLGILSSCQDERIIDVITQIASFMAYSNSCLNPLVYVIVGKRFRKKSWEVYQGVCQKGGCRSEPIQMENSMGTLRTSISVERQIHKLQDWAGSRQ
# [7] = target: Neuronal acetylcholine receptor subunit alpha-4 (Homo sapiens, UniProt P43681)
# Chain of Neuronal acetylcholine receptor subunit alpha-4 (P43681 whole entry): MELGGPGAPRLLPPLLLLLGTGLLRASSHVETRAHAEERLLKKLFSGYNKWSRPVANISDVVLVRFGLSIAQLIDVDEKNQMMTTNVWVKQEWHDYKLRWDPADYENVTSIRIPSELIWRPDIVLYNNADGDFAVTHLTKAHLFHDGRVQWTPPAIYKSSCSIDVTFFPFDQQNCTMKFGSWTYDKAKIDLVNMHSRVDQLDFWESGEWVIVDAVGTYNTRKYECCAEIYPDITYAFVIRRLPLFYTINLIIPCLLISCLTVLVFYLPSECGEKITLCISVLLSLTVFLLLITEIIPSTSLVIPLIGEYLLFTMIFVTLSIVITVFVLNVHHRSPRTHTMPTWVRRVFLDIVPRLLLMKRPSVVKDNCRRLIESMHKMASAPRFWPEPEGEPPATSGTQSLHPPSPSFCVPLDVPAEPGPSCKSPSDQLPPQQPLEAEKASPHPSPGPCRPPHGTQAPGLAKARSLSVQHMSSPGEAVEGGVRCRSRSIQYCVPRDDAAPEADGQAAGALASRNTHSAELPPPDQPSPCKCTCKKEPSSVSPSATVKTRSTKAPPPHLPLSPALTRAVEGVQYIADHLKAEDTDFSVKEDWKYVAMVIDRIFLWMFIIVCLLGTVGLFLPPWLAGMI
# [8] = target: D(1A) dopamine receptor (Homo sapiens, UniProt P21728); assay type: functional, cell-based
# Chain of D(1A) dopamine receptor (P21728 whole entry): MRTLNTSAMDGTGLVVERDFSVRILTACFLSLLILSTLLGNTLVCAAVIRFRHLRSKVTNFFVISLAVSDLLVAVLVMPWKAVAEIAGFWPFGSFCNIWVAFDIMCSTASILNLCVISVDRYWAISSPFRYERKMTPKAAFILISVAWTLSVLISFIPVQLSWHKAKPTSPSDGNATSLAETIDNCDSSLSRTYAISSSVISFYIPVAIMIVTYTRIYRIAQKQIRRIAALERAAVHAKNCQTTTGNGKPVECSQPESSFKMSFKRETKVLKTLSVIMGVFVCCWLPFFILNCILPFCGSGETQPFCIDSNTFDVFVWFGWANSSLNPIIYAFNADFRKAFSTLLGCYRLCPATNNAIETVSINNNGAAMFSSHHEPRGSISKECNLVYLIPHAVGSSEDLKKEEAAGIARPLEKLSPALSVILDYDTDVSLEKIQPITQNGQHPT
# [9] = target: Gamma-aminobutyric acid receptor subunit alpha-1 (Rattus norvegicus, UniProt P62813); assay type: functional
# Chain of Gamma-aminobutyric acid receptor subunit alpha-1 (P62813 whole entry): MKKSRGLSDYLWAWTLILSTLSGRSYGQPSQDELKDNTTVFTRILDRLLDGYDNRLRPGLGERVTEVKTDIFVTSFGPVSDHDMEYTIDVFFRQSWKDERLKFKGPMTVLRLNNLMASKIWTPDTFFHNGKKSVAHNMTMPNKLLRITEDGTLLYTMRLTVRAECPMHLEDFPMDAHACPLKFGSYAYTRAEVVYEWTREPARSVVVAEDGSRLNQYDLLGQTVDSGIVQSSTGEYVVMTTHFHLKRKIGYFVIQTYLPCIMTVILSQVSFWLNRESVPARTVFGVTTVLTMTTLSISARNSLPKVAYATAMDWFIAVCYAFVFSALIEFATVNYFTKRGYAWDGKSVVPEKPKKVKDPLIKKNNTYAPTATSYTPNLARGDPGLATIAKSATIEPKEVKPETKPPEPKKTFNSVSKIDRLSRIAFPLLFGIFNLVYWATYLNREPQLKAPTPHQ
# [10] = target: 5-hydroxytryptamine receptor 2B (Homo sapiens, UniProt P41595); assay type: functional, cell-based
# Chain of 5-hydroxytryptamine receptor 2B (P41595 whole entry): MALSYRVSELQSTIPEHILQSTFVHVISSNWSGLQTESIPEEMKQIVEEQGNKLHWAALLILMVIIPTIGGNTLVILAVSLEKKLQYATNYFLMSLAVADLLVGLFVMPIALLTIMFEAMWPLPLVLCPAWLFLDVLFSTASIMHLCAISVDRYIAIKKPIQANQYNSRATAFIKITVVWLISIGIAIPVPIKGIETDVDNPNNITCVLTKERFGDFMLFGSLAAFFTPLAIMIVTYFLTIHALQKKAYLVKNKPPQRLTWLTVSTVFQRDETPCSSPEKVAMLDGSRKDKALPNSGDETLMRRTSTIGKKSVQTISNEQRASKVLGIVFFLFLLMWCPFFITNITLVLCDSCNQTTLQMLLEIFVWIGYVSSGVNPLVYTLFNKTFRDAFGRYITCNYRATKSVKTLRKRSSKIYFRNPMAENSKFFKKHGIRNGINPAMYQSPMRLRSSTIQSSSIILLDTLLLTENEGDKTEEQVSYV
# [11] = target: Mu-type opioid receptor (Homo sapiens, UniProt P35372)
# Chain of Mu-type opioid receptor (P35372 whole entry): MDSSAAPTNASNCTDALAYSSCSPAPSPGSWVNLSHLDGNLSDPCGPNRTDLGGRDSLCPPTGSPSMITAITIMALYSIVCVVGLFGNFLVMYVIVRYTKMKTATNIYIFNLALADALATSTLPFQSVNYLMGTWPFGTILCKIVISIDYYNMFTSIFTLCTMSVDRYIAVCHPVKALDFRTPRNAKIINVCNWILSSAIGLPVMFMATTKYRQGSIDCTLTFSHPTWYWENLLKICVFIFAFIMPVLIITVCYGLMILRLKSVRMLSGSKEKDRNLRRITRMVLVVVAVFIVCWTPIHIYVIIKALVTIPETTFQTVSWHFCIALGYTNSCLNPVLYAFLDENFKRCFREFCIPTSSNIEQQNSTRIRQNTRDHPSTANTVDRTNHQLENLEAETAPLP
# [12] = target: T4, Alpha-1A adrenergic receptor (Homo sapiens, UniProt P35348); assay type: functional, cell-based
# T4 sequence (P35348 whole entry): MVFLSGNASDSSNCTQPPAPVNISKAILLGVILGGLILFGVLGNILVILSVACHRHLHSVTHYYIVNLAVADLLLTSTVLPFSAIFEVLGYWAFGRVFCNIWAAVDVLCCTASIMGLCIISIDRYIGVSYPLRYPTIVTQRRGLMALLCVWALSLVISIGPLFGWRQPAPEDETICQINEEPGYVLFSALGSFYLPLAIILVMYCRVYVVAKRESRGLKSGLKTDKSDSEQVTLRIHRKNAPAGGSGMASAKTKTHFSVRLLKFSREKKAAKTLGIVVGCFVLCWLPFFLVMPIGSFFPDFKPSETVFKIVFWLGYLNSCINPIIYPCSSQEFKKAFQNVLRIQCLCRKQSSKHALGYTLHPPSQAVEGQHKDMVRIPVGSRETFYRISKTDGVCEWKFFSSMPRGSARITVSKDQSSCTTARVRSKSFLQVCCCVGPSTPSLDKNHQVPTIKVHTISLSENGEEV
# [13] = target: Muscarinic acetylcholine receptor M3 (Homo sapiens, UniProt P20309)
# Chain of Muscarinic acetylcholine receptor M3 (P20309 whole entry): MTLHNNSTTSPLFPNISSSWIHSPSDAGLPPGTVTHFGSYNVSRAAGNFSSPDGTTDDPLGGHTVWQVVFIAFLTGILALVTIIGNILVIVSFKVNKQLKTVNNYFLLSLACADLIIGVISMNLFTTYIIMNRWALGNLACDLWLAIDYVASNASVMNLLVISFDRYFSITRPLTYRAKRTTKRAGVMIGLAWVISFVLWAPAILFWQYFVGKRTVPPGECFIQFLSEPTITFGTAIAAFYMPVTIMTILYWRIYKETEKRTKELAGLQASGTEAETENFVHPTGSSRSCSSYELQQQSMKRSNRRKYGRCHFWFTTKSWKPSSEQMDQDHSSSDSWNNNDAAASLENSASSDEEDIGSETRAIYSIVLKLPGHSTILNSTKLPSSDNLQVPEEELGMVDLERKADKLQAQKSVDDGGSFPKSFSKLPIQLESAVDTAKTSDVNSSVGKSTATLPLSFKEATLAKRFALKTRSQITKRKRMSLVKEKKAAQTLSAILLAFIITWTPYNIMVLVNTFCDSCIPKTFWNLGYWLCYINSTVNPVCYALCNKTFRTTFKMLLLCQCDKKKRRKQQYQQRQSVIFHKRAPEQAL
# [14] = target: T5, Endothelin-1 receptor (Homo sapiens, UniProt P25101)
# T5 sequence (P25101 whole entry): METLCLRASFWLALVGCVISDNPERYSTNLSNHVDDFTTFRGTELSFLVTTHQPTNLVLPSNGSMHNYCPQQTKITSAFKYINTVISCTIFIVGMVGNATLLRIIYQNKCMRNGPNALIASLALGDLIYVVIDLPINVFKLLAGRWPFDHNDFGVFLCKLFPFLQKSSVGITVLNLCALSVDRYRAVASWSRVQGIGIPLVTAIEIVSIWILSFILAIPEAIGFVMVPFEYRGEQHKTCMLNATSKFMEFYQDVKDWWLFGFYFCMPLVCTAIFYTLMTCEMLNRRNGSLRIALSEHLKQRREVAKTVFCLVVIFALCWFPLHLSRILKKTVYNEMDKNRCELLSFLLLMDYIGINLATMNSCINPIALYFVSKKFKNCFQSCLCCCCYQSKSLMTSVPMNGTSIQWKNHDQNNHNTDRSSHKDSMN
# Further: assay procedure not described here.
# Chain of Adenosine receptor A2a (P29274 whole entry): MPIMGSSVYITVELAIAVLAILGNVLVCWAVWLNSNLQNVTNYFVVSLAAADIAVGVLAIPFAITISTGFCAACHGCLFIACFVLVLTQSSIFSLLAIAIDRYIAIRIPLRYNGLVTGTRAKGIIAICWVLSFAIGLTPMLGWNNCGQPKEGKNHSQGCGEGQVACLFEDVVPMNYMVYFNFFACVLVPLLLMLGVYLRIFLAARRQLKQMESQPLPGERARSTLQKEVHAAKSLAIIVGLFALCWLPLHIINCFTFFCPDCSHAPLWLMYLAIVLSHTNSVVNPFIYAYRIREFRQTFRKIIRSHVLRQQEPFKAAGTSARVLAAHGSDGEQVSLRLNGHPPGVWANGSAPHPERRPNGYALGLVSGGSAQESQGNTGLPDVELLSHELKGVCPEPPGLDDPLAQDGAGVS
Compound,AC50 [1],AC50 [2],AC50 [3],AC50 [4],AC50 [5],AC50 [6],AC50 [7],AC50 [8],AC50 [9],AC50 [10],AC50 [11],AC50 [12],AC50 [13],AC50 [14]
CCC1(CCC(C)C)C(=O)NC(=O)NC1=O [AMOBARBITAL],> 10 µM,> 10 µM,> 10 µM,> 10 µM,> 10 µM,> 10 µM,> 10 µM,> 10 µM,> 10 µM,> 10 µM,> 30 µM,,,
COc1ccc(C2C(=O)c3ccccc3C2=O)cc1 [ANISINDIONE],> 10 µM,> 10 µM,> 10 µM,> 10 µM,> 10 µM,> 10 µM,> 10 µM,> 30 µM,> 10 µM,> 10 µM,> 30 µM,,,
Cc1cc(=O)n(-c2ccccc2)n1C [ANTIPYRINE],> 30 µM,> 10 µM,> 10 µM,> 10 µM,> 10 µM,> 30 µM,> 10 µM,> 10 µM,> 10 µM,> 10 µM,> 30 µM,> 30 µM,,
O=C(O)CCNC(=O)c1ccc(/N=N/c2ccc(O)c(C(=O)O)c2)cc1 [BALSALAZIDE],33.1 µM,> 30 µM,> 30 µM,> 30 µM,> 30 µM,> 30 µM,> 30 µM,> 30 µM,> 30 µM,> 30 µM,,,,
O=C(CCCN1CCC(O)(c2ccc(Br)cc2)CC1)c1ccc(F)cc1 [BROMPERIDOL],> 30 µM,,,,> 30 µM,> 30 µM,> 30 µM,> 30 µM,> 30 µM,7.3 µM,,> 30 µM,12 µM,> 30 µM
C[C@@H]1C[C@H]2[C@@H]3CCC4=CC(=O)C=C[C@]4(C)[C@@]3(F)[C@@H](O)C[C@]2(C)[C@@]1(O)C(=O)CO [DEXAMETHASONE],> 30 µM,> 10 µM,> 10 µM,> 30 µM,> 30 µM,> 30 µM,> 30 µM,> 30 µM,> 10 µM,> 10 µM,> 30 µM,,,
CCN1CC(CCN2CCOCC2)C(c2ccccc2)(c2ccccc2)C1=O (configuration not stated) [DOXAPRAM],> 30 µM,> 30 µM,> 30 µM,> 30 µM,> 30 µM,> 30 µM,> 30 µM,> 30 µM,> 30 µM,> 30 µM,,> 30 µM,,> 30 µM
CC(C)NC[C@H](O)COc1ccc(CC(N)=O)cc1 [ESATENOLOL],> 30 µM,> 10 µM,> 10 µM,> 10 µM,,> 30 µM,,,,,,,,> 30 µM
CCOC(=O)c1ncn2c1CN(C)C(=O)c1cc(F)ccc1-2 [FLUMAZENIL],> 30 µM,> 30 µM,> 30 µM,> 30 µM,> 30 µM,> 30 µM,> 30 µM,> 30 µM,,> 30 µM,> 30 µM,> 30 µM,,
C[C@]12C/C(=C/O)C(=O)C[C@@H]1CC[C@@H]1[C@@H]2CC[C@@]2(C)[C@H]1CC[C@]2(C)O [OXYMETHOLONE],> 30 µM,> 30 µM,> 30 µM,> 30 µM,> 30 µM,> 30 µM,> 30 µM,> 30 µM,> 30 µM,> 30 µM,,> 30 µM,,> 30 µM
Fc1ccc([C@@H]2CCNC[C@H]2COc2ccc3c(c2)OCO3)cc1 [PAROXETINE],> 30 µM,,,7.8 µM,> 10 µM,> 30 µM,> 10 µM,> 10 µM,> 10 µM,19.1 µM,,,,> 30 µM
NC(=O)NC(=O)Cc1ccccc1 [PHENACEMIDE],> 10 µM,> 10 µM,> 10 µM,> 10 µM,> 10 µM,> 10 µM,> 10 µM,> 10 µM,> 10 µM,> 10 µM,> 30 µM,,,
CCCN(CCC)S(=O)(=O)c1ccc(C(=O)O)cc1 [PROBENECID],> 10 µM,> 10 µM,> 10 µM,> 10 µM,> 10 µM,> 10 µM,> 10 µM,> 10 µM,> 10 µM,> 10 µM,> 30 µM,,,
O=c1c(O)c(-c2ccc(O)c(O)c2)oc2cc(O)cc(O)c12 [QUERCETIN],> 30 µM,> 10 µM,> 30 µM,> 10 µM,,> 30 µM,> 10 µM,> 10 µM,,> 30 µM,,,> 30 µM,> 30 µM
Cc1cc(C)nc(NS(=O)(=O)c2ccc(N)cc2)n1 [SULFAMETHAZINE],> 10 µM,> 10 µM,> 10 µM,> 30 µM,> 10 µM,> 10 µM,> 10 µM,> 30 µM,> 10 µM,> 10 µM,> 30 µM,,,
COc1cc(C(=O)NC2CCCNC2)cc(OC)c1OC (configuration not stated) [TROXIPIDE],> 30 µM,> 30 µM,> 30 µM,> 30 µM,> 30 µM,> 30 µM,> 30 µM,> 30 µM,> 30 µM,> 30 µM,,> 30 µM,,> 30 µM
CCCCCCCC(=O)CC[C@@H]1[C@@H](C/C=C\CCCC(=O)OC(C)C)[C@@H](O)C[C@H]1O [UNOPROSTONE ISOPROPYL],,,,13 µM,,,,,,0.89 µM,,,,
